PMC6216040, “Repurposing of an old drug: In vitro and in vivo efficacies of buparvaquone against Echinococcus multilocularis” (International Journal for Parasitology: Drugs and Drug …, 2018)
Read-outs that look alike come from different tables or passages of the source.

Tested on: E. multilocularis metacestodes
Assay: PGI-assay: drug-induced damage on in vitro cultured metacestodes (Pathogen Box screening cascade and EC50)
Assay type: cell-based, Echinococcus multilocularis
Settings: for cytotoxicity at 10 µM: Echinococcus multilocularis; for cytotoxicity at 10 µM / PGI release, % of the Tx-100 control, 5d / PGI release, % of the Tx-100 control, 12d: singlets, 10 µM
[1] = 120 h, 5 days of incubation, read-out: PGI release, % of the Tx-100 control, 5d
[2] = 288 h, 12 days of incubation, read-out: PGI release, % of the Tx-100 control, 12d
[3] = confirmatory screening at 10 µM in triplicates, 5 days of incubation, values as % of Tx-100 control
[4] = confirmatory screening at 10 µM in triplicates, 12 days of incubation, values as % of Tx-100 control

Structure (SMILES)	PGI release, % of the Tx-100 control, 5d (5 days of incubation) [%]	PGI release, % of the Tx-100 control, 12d (12 days of incubation) [%]	also measured
C[C@H]1c2cccc(O)c2C(=O)C2=C(O)[C@]3(O)C(=O)C(C(N)=O)=C(O)[C@@H](N(C)C)[C@@H]3[C@@H](O)[C@@H]21 [MMV000011, Doxycycline, reference compound]			cytotoxicity at 10 µM [1]: 3.26%; cytotoxicity at 10 µM [2]: -0.0343%
COc1cc(NC(C)CCCN)c2ncccc2c1 (centres unmarked) [MMV000023, Primaquine, reference compound]			cytotoxicity at 10 µM [1]: -0.23%; cytotoxicity at 10 µM [2]: 17.6%
CCN(CC)CCCCCCNc1cc(OC)cc2c(C)ccnc12 [MMV000063, Sitamaquine, reference compound]			cytotoxicity at 10 µM [1]: -0.0141%; cytotoxicity at 10 µM [2]: 10.8%
O=S(=O)(c1ccc(Cl)cc1)N1CCN(C(=S)NCc2ccco2)CC1 [MMV000858]	-0.26	2.40	
COc1cccc2c(C)nc(N=C(N)N)nc12 [MMV000907]	-2.91	1.72	
CCCS(=O)(=O)N1CCC(CO)(Cc2ccccc2C(F)(F)F)CC1 [MMV001059]	1.56	1.44	
COC(=O)C1=C(C)NC(C)=C(C(=O)OC(C)C)C1c1cccc2nonc12 (centres unmarked) [MMV001493, Isradipine, reference compound]			cytotoxicity at 10 µM [1]: 0.84%; cytotoxicity at 10 µM [2]: 0.0436%
CC1CS(=O)(=O)CCN1/N=C/c1ccc([N+](=O)[O-])o1 (centres unmarked) [MMV001499, Nifurtimox, reference compound]			cytotoxicity at 10 µM [1]: 2.54%; cytotoxicity at 10 µM [2]: 3.97%
CNCCC(Oc1ccc(C(F)(F)F)cc1)c1ccccc1 (centres unmarked) [MMV001561, Fluoxetine, reference compound]			cytotoxicity at 10 µM [1]: -1.25%; cytotoxicity at 10 µM [2]: -5.98%
O=C(C1CCCCC1)N1CC(=O)N2CCc3ccccc3C2C1 (centres unmarked) [MMV002529, Praziquantel, reference compound]			cytotoxicity at 10 µM [1]: -0.87%; cytotoxicity at 10 µM [2]: -0.49%
CCN(CC)C(=O)N1CCN(C)CC1 [MMV002816, Diethylcarbamazine, reference compound]			cytotoxicity at 10 µM [1]: -0.92%; cytotoxicity at 10 µM [2]: -1.56%
Oc1c(I)cc(I)c2cccnc12 [MMV002817, Diiodohydroxyquinoline, reference compound]			cytotoxicity at 10 µM [1]: -1.42%; cytotoxicity at 10 µM [2]: -0.41%
CN1CCCN(C(c2ccccc2)c2ccc(Cl)cc2)CC1 (centres unmarked) [MMV004168]	-0.40	76.56	PGI release, % of Tx-100 control, average, 5d [3]: -1.18%; PGI release, % of Tx-100 control, average, 12d [4]: 4.34%
O=C1Nc2ccc(Br)cc2C12NCCc1c2[nH]c2ccccc12 (centres unmarked) [MMV006239]	0.78	2.27	
Cc1ccc2[nH]c3c(NCCN(C)C)ncnc3c2c1 [MMV006372]	0.48	-0.11	
COc1cc2ncnc(NC3CCN(Cc4ccccc4)CC3)c2cc1OC [MMV006741]	-1.05	0.30	
Cc1cc(Cl)c(S(=O)(=O)N2CCCC2)cc1OCC(=O)NC1CCCCC1 [MMV006833]	0.0374	-0.28	
CN(C)c1cc(NC(=O)Nc2ccccc2)c2ccccc2n1 [MMV006901]	13.97	19.56	
Cc1cc(NC(=O)c2ccc(S(=O)(=O)N(Cc3ccccc3)C(C)C)cc2)no1 [MMV007133]	-0.95	0.46	
COc1cc(OC)cc(C(=O)NCC2Cc3cc(Cl)cc(-c4ccncc4)c3O2)c1 (centres unmarked) [MMV007471]	1.94	7.77	
Cc1cc(C)n(-c2ccc(NC(=O)C3CCN(Cc4cnc(C)s4)CC3)cc2)n1 [MMV007625]	0.65	25.58	PGI release, % of Tx-100 control, average, 5d [3]: -1.00%; PGI release, % of Tx-100 control, average, 12d [4]: -1.56%
CCOc1ccc(-c2nc(NC(=O)CS(=O)(=O)c3ccccc3)sc2C)cc1 [MMV007638]	-0.28	0.13	
O=C(NC1CC1)c1ccc(CSCc2ccccc2Cl)o1 [MMV007803]	-0.54	-0.13	

Structure (SMILES)	PGI release, % of the Tx-100 control, 5d (5 days of incubation) [%]	PGI release, % of the Tx-100 control, 12d (12 days of incubation) [%]	also measured
Nc1ccc(C(=O)Nc2ccc(-c3nc4ccccc4o3)cc2)cc1 [MMV007920]	0.08	-0.69	
COc1ccc(CN2CCOc3ccc(C(C)(O)CN(C)C)cc3C2)cc1C (centres unmarked) [MMV008439]	-0.31	-1.11	
Cc1cc(C(=O)Nc2cnn(Cc3ccc(Cl)cc3Cl)c2)no1 [MMV009054]	-0.80	-0.25	
O=C(C1CCN(c2nnnn2-c2ccccc2)CC1)N1CCc2ccccc2C1 [MMV009135]	-0.49	-1.30	
COc1ccc(-c2cnc3ccc(NCc4ccc(S(N)(=O)=O)cc4)nn23)cn1 [MMV010545]	-0.28	-0.35	
COc1cc(-c2cc(-c3ccc(S(C)(=O)=O)cc3)cnc2N)ccc1O [MMV010576]	-0.22	-2.40	
c1csc(-c2cnc3sc(NCC4CCOCC4)nn23)c1 [MMV010764]	-0.61	-4.41	
Cc1cc(Nc2ccc(C(F)(F)F)cc2)n2ccnc2n1 [MMV011229]	-0.86	-1.35	
COc1ccc(CCN2CCC(NCc3cccc(N(C)C)c3)CC2)cc1 [MMV011511]	1.21	4.25	
NCC(=O)N1CCn2c(nc(-c3ccccc3)c2Nc2ccc3c(c2)OCO3)C1 [MMV011691]	1.25	2.05	
FC(F)(F)c1cnc(Sc2nnc(-c3ccncc3)o2)c(Cl)c1 [MMV011765]	0.33	0.66	
Cc1ccc(NC(=O)c2nc[nH]c2C(=O)Nc2nc3ccccc3[nH]2)c(C)c1 [MMV011903]	41.66	94.00	PGI release, % of Tx-100 control, average, 5d (1 µM, triplicates, 5 days of incubation): -2.96%; PGI release, % of Tx-100 control, average, 12d (1 µM, triplicates, 12 days of incubation): -9.52%; activity in the screen at 10 μM (confirmed in triplicates, >20% relative PGI release) (10 μM, 5 and 12 days): active; PGI release, % of Tx-100 control, average, 5d [3]: 4.49%; PGI release, % of Tx-100 control, average, 12d [4]: 34.00%
Cc1nc2ccccn2c1C(=O)NCc1ccc(Cl)cc1 [MMV012074]	0.39	-0.51	
Cc1cc(Nc2ccncc2)n2nc(C)c(-c3ccccc3Cl)c2n1 [MMV016136]	0.97	2.16	
Cc1ccc(-c2cc(C(=O)Nc3cccnc3)c3cc(Br)ccc3n2)cc1 [MMV016838]	-0.19	-0.0545	
Cc1cc(C)n2nc(C(=O)Nc3cc(C(F)(F)F)ccc3N3CCOCC3)nc2n1 [MMV019087]	-0.91	-0.17	
Cc1ccc2c(c1C)NC(=O)C21NN=C(c2ccccc2)S1 (centres unmarked) [MMV019189]	4.07	-1.23	
COc1ccc(C2CC(c3cccs3)=NN2C(=O)c2ccco2)cc1OC (centres unmarked) [MMV019234]	0.82	6.10	
CCC(NC(=O)c1ccccc1NC(=O)c1ccc(C)cc1)C(=O)OC (centres unmarked) [MMV019551]	-0.56	0.21	
CCN(CC)S(=O)(=O)c1ccc(Cl)c(C(=O)Nc2ccc3nc(C)sc3c2)c1 [MMV019721]	-0.43	-1.86	
Cc1ccc(S(=O)(=O)N2CCN(C(=O)c3cc(-c4ccccc4)n[nH]3)CC2)cc1 [MMV019742]	0.16	0.57	
CCOc1ccccc1C(=O)Nc1cccc(-c2nc3ncccn3c2C)c1 [MMV019790]	-1.05	53.36	PGI release, % of Tx-100 control, average, 5d [3]: -1.68%; PGI release, % of Tx-100 control, average, 12d [4]: -2.24%
